# Results: the supplement of paper PMC7017272
# ± gives the standard deviation of the averaged measurements.
# Key:
# Details in all cases: treatment time: 3 days
# UT-SCC-24A [1] = assay: drug sensitivity score (DSS); higher = more sensitive
# Procedure: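 HNSCC cell lines (500 cells/well, 384-well) were cultured on plastic, on top of (2D) or embedded (3D) in Matrigel or human leiomyoma matrix Myogel (500 ug/mL; Myogel 3D mixed with rat collagen I). Cells were treated for 3 days with 5 ten-fold concentrations of each drug, and viability was read by CellTiter-Glo. Suffixes _1/_2/_3 on drug names are replicates.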
# UT-SCC-106A [2] = assay: maximal % inhibition of viability relative to DMSO; higher = stronger effect
# Method in brief: (§1)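 Three growth formats were used for HPV-negative HNSCC cell lines in 384-well plates at 500 cells/well: bare plastic, wells coated with Matrigel or Myogel (500 µg/mL), and embedding in Matrigel or Myogel plus rat collagen I. Compounds were added at five 10-fold concentrations, and after 3 days CellTiter-Glo 2.0 luminescence was recorded and normalised to vehicle (0.1% DMSO) and cell-killing control wells. IC50, maximal inhibition and drug sensitivity score came from percent-inhibition dose–response fitting in the FIMM pipeline.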
# UT-SCC-14 [3] = assay: as above
# Method in brief: as §1
# UT-SCC-28 [4] = assay: as above
# Method in brief: as §1
# UT-SCC-24A [5] = assay: maximal % inhibition of viability relative to DMSO; higher = stronger effect
# Procedure: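 HNSCC cell lines (500 cells/well, 384-well) were cultured on plastic, on top of (2D) or embedded (3D) in Matrigel or human leiomyoma matrix Myogel (500 ug/mL; Myogel 3D mixed with rat collagen I). Cells were treated for 3 days with 5 ten-fold concentrations of each drug, and viability was read by CellTiter-Glo. Viability was normalised to DMSO (0% inhibition) and 100 uM benzethonium chloride (100% inhibition) controls and fitted with the FIMM DSRT pipeline to give IC50 (nM), maximal % inhibition and the drug sensitivity score (DSS). Suffixes _1/_2/_3 on drug names are replicates.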
# UT-SCC-106A [6] = assay: drug sensitivity score (DSS); higher = more sensitive; extreme values may be limits of the assay
# Method in brief: as §1
# UT-SCC-14 [7] = assay: as above
# Method in brief: as §1
# UT-SCC-24B = assay: as above
# Method in brief: as §1
# UT-SCC-28 [8] = assay: as above
# Method in brief: as §1
# UT-SCC-40 = assay: as above
# Method in brief: as §1
# UT-SCC-42A = assay: as above
# Method in brief: as §1
# UT-SCC-42B = assay: as above
# Method in brief: as §1
# UT-SCC-44 = assay: as above
# Method in brief: as §1
# UT-SCC-73 = assay: as above
# Method in brief: as §1
# UT-SCC-81 = assay: as above
# Method in brief: as §1
# UT-SCC-8 = assay: as above
# Method in brief: as §1
# [9] = culture condition: embedded in Matrigel
# [10] = culture condition: embedded in Myogel + collagen I
# [11] = culture condition: on top of Matrigel
# [12] = culture condition: on top of Myogel
# [13] = culture condition: plastic 2D (no matrix)
compound,measurement,setting,value
Cn1c(=O)n(-c2ccc(C(C)(C)C#N)cc2)c2c3cc(-c4cnc5ccccc5c4)ccc3ncc21 [Dactolisib],drug sensitivity score,UT-SCC-24A [1]; [9],5.73 ± 5 DSS
same,drug sensitivity score,UT-SCC-24A [1]; [10],0.767 ± 1.3 DSS
same,drug sensitivity score,UT-SCC-24A [1]; [11],0 DSS
same,drug sensitivity score,UT-SCC-24A [1]; [12],0 DSS
same,drug sensitivity score,UT-SCC-24A [1]; [13],0 DSS
same,maximal % inhibition of viability,UT-SCC-106A [2]; [9],3.67 ± 0.31%
same,maximal % inhibition of viability,UT-SCC-106A [2]; [10],7.53 ± 8.4%
same,maximal % inhibition of viability,UT-SCC-106A [2]; [11],4.43 ± 3.8%
same,maximal % inhibition of viability,UT-SCC-106A [2]; [12],5.1 ± 8.8%
same,maximal % inhibition of viability,UT-SCC-106A [2]; [13],7.07 ± 3.2%
same,maximal % inhibition of viability,UT-SCC-14 [3]; [9],16.8 ± 19%
same,maximal % inhibition of viability,UT-SCC-14 [3]; [10],16.2 ± 15%
same,maximal % inhibition of viability,UT-SCC-14 [3]; [11],7.17 ± 5.8%
same,maximal % inhibition of viability,UT-SCC-14 [3]; [12],7.03 ± 7.9%
same,maximal % inhibition of viability,UT-SCC-14 [3]; [13],11.7 ± 10%
same,maximal % inhibition of viability,UT-SCC-28 [4]; [9],19.7 ± 5%
same,maximal % inhibition of viability,UT-SCC-28 [4]; [10],9.5 ± 12%
same,maximal % inhibition of viability,UT-SCC-28 [4]; [11],13.3 ± 2.7%
same,maximal % inhibition of viability,UT-SCC-28 [4]; [13],8.33 ± 5.8%
same,maximal % inhibition of viability,UT-SCC-24A [5]; [9],34.6 ± 9%
same,maximal % inhibition of viability,UT-SCC-24A [5]; [10],14.9 ± 11%
same,maximal % inhibition of viability,UT-SCC-24A [5]; [11],14.7 ± 5.4%
same,maximal % inhibition of viability,UT-SCC-24A [5]; [12],4.17 ± 3.1%
same,maximal % inhibition of viability,UT-SCC-24A [5]; [13],6.6 ± 2.1%
same,drug sensitivity score,UT-SCC-106A [6]; [9],0 DSS
same,drug sensitivity score,UT-SCC-106A [6]; [10],0 DSS
same,drug sensitivity score,UT-SCC-106A [6]; [11],0 DSS
same,drug sensitivity score,UT-SCC-106A [6]; [12],0 DSS
same,drug sensitivity score,UT-SCC-106A [6]; [13],0.0333 ± 0.058 DSS
same,drug sensitivity score,UT-SCC-14 [7]; [9],3.03 ± 5.2 DSS
same,drug sensitivity score,UT-SCC-14 [7]; [10],0 DSS
same,drug sensitivity score,UT-SCC-14 [7]; [11],0 DSS
same,drug sensitivity score,UT-SCC-14 [7]; [12],0 DSS
same,drug sensitivity score,UT-SCC-14 [7]; [13],0.3 ± 0.52 DSS
same,drug sensitivity score,UT-SCC-24B; [9],11.6 ± 0.64 DSS
same,drug sensitivity score,UT-SCC-24B; [10],16.3 ± 0.52 DSS
same,drug sensitivity score,UT-SCC-24B; [11],13.4 ± 0.46 DSS
same,drug sensitivity score,UT-SCC-24B; [12],13.6 ± 0.51 DSS
same,drug sensitivity score,UT-SCC-24B; [13],12.8 ± 0.25 DSS
same,drug sensitivity score,UT-SCC-28 [8]; [9],0 DSS
same,drug sensitivity score,UT-SCC-28 [8]; [10],0.133 ± 0.23 DSS
same,drug sensitivity score,UT-SCC-28 [8]; [11],0.1 ± 0.17 DSS
same,drug sensitivity score,UT-SCC-28 [8]; [13],0 DSS
same,drug sensitivity score,UT-SCC-40; [9],0.5 ± 0.87 DSS
same,drug sensitivity score,UT-SCC-40; [10],0 DSS
same,drug sensitivity score,UT-SCC-40; [11],0 DSS
same,drug sensitivity score,UT-SCC-40; [12],0 DSS
same,drug sensitivity score,UT-SCC-40; [13],0 DSS
same,drug sensitivity score,UT-SCC-42A; [9],0 DSS
same,drug sensitivity score,UT-SCC-42A; [10],0 DSS
same,drug sensitivity score,UT-SCC-42A; [11],0 DSS
same,drug sensitivity score,UT-SCC-42A; [12],0 DSS
same,drug sensitivity score,UT-SCC-42A; [13],0 DSS
same,drug sensitivity score,UT-SCC-42B; [9],0 DSS
same,drug sensitivity score,UT-SCC-42B; [11],0 DSS
same,drug sensitivity score,UT-SCC-42B; [12],0 DSS
same,drug sensitivity score,UT-SCC-42B; [13],0 DSS
same,drug sensitivity score,UT-SCC-44; [9],0 DSS
same,drug sensitivity score,UT-SCC-44; [10],0 DSS
same,drug sensitivity score,UT-SCC-44; [11],0 DSS
same,drug sensitivity score,UT-SCC-44; [12],0 DSS
same,drug sensitivity score,UT-SCC-44; [13],0.9 ± 1.6 DSS
same,drug sensitivity score,UT-SCC-73; [9],0 DSS
same,drug sensitivity score,UT-SCC-73; [10],0 DSS
same,drug sensitivity score,UT-SCC-73; [11],0 DSS
same,drug sensitivity score,UT-SCC-73; [12],0 DSS
same,drug sensitivity score,UT-SCC-73; [13],0 DSS
same,drug sensitivity score,UT-SCC-81; [9],3.7 ± 3.4 DSS
same,drug sensitivity score,UT-SCC-81; [10],0 DSS
same,drug sensitivity score,UT-SCC-81; [11],0 DSS
same,drug sensitivity score,UT-SCC-81; [12],0 DSS
same,drug sensitivity score,UT-SCC-81; [13],0 DSS
same,drug sensitivity score,UT-SCC-8; [9],0 DSS
same,drug sensitivity score,UT-SCC-8; [10],0.6 ± 0.66 DSS
same,drug sensitivity score,UT-SCC-8; [11],0 DSS
same,drug sensitivity score,UT-SCC-8; [12],0.133 ± 0.15 DSS
same,drug sensitivity score,UT-SCC-8; [13],0 DSS
